Source: publication PMC6401105, “Dual role of the Anopheles coluzzii Venus Kinase Receptor in both larval growth and immunity” (Scientific Reports, 2019)

Experiments:
[1] = molecular target: T1, Anopheles VKR (AgVKR; VKR^WT) (Anopheles gambiae, UniProt C5H7S1); assay: GVBD of Xenopus oocytes expressing VKR; anti-phosphotyrosine Western blot; format: cell-based; settings: agonist; VFT domain; ND96 medium pH 7.4, 19 °C, 18 h; not an EC50
T1 sequence (C5H7S1 26-1465): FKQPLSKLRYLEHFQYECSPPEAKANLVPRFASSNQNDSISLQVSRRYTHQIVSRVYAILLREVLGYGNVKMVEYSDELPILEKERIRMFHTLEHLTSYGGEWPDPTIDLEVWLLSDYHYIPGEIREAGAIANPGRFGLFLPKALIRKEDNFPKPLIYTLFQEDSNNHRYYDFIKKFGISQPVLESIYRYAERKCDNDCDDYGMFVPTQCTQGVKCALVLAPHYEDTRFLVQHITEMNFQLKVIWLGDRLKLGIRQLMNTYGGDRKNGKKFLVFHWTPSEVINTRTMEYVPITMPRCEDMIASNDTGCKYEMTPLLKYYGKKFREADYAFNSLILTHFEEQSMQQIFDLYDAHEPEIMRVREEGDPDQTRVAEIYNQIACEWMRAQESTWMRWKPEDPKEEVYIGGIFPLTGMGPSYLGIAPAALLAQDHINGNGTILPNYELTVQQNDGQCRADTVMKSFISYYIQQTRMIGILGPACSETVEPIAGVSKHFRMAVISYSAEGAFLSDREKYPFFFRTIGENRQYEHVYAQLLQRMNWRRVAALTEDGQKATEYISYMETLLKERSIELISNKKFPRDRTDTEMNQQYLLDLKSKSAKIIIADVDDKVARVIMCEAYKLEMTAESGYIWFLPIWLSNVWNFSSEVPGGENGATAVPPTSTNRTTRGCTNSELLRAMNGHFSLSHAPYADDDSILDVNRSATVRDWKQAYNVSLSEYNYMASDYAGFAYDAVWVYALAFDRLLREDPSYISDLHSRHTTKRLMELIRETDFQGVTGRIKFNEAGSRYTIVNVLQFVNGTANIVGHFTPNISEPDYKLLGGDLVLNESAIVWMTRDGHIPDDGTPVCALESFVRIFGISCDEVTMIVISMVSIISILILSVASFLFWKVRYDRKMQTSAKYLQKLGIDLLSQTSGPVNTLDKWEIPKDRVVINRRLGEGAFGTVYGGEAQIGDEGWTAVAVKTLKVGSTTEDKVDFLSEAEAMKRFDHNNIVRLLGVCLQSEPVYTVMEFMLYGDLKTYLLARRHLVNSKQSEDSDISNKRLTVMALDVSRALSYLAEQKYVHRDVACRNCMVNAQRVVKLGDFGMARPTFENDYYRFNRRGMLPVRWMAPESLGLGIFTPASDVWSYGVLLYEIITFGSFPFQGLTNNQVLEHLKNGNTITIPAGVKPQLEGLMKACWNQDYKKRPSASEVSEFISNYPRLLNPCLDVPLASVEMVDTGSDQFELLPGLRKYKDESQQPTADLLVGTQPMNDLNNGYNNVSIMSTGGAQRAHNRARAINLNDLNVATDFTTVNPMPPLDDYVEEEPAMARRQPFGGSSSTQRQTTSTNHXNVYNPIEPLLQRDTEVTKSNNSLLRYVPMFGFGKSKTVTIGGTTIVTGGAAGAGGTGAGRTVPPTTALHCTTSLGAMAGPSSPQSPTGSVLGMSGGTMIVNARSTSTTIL

[2] = molecular target: T1, Anopheles VKR (AgVKR; VKR^WT); assay: GVBD of Xenopus oocytes expressing VKR; format: cell-based; settings: agonist; VFT domain; ND96 medium pH 7.4, 19 °C, 18 h; not an EC50

| SMILES | minimal concentration to induce GVBD [1] | minimal concentration to induce GVBD [2] |
| --- | --- | --- |
| N=C(N)NCCC[C@H](N)C(=O)O [L-Arg] | 1 µM | – |
| N[C@@H](CS)C(=O)O [L-Cys] | – | 1 mM |
